This note sets out measurements from publication PMC8583996, “Berberine Inhibits MDA-MB-231 Cells as an Agonist of G Protein-Coupled Estrogen Receptor 1” (International Journal of Molecular Sciences, 2021).

The target of this experiment is T1, human GPER1 (Homo sapiens, UniProt Q99527).
T1 construct: Sf9 baculovirus; Ni-NTA (tag not described) and size exclusion; DDM/CHS; primarily monomer
As to the kind of experiment: intrinsic fluorescence quenching titration. It counts as binding.

T1 sequence (Q99527 whole entry): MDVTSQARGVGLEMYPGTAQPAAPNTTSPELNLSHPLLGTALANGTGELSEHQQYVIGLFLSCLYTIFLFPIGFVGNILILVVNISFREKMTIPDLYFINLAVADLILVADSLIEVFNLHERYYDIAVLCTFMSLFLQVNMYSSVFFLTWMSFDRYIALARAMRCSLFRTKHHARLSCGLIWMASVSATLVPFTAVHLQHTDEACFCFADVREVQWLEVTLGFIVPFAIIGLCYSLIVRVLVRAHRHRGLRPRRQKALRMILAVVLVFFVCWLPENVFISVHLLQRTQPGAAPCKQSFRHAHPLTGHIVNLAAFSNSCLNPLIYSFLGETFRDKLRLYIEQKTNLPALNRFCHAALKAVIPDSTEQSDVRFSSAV

For orientation: Kd means the constant that tells how readily two partners part at equilibrium. The low end stands for a tighter complex, the high end for a looser complex. Regarding `COc1ccc2cc3[n+](cc2c1OC)CCc1cc2c(cc1-3)OCO2` [BBR], the Kd came out at 0.89 nM.
